The subject of the assay is KRAS patient-derived spheroids with HUVEC/MSC, viability. Briefly: Anticancer human tumor 323965-272-R-J2-PDC patient-derived pancreatic carcinoma cell line growth inhibition [KRAS2]. The note with it: for viability, T/C: stronger effect = lower value. From the text: Multicellular complex tumor spheroid response to RAS pathway inhibitors in combination with a targeted agents in patient-derived cell lines with oncogenic KRAS variants from multiple cancer types
A high-throughput screen of multi-cell type tumor spheroids was designed to identify active combinations of targeted small molecules and KRAS pathway inhibitors. Complex spheroids include a stromal component modeled by human endothelial cells (HUVEC) and fibroblasts modeled by human mesenchymal stem cells (MSCs). The concentration ranges selected for each drug and investigational agent were based upon clinically achievable concentrations if the clinical Cmax of the agent was known.
Compounds. The drugs and investigational agents: BI-3406 (NSC825286), BAY-293 (NSC824723), batoprotafib (TNO155; NSC825523), sotorasib (AMG 510; NSC818433), MRTX1257 (NSC819558), elimusertib (BAY 1895344; NSC800525), molibresib (GSK525762; NSC774829), temuterkib (LY3214996; NSC803410), venetoclax (NSC766270), alisertib (NSC759677), olaparib (NSC753686), talazoparib (NSC767125), erdafitinib (NSC781556), ipatasertib (NSC767898), cabozantinib (NSC761068), nintedanib (NSC756659), abemaciclib (NSC768073), docetaxel (NSC628503), trametinib (NSC758246), and sapanisertib (NSC764658) were obtained from the National Cancer Institute (NCI) Developmental Therapeutics Program Chemical Repository. The FDA-approved anticancer drug set is available from the Developmental Therapeutics Program. […] The stock solutions were prepared in dimethyl sulfoxide (DMSO, Sigma-Aldrich, St. Louis, MO, cat. D2650) at 800-fold the tested concentration and stored at -70 degrees C prior to their use. All drugs and investigational agents were tested over a range starting from a high concentration at or near the clinical Cmax and decreasing in half-log increments. If the clinical Cmax for an agent had not been determined, the highest concentration tested was 10 microM.
Cell Culture. All cells were maintained in an incubator at 37 degrees C and 5% CO2 with 95% humidity. The PDC lines were cultured according to standard operating procedures established by the NCI PDMR (https://pdmr.cancer.gov/sops/default.htm). Briefly, all PDCs were thawed and cultured in Matrigel-coated flasks prepared with a working solution of 1X Ham's F-12 nutrient mix, without supplementation (Invitrogen, Waltham, MA, cat. 11765054), 100 U/mL penicillin-streptomycin (Invitrogen, cat. 15140122), and 2.5% Matrigel (Corning Inc., Corning, NY, cat. 354248) for the first three passages. All PDCs were cultured in complete DMEM/F-12 media containing advanced DMEM/F-12 (Invitrogen, cat. 12634028), 4.9% defined fetal bovine serum, heat inactivated (HyClone Laboratories Inc., Logan, UT, cat. SH30070.03HI), 389 ng/mL hydrocortisone (Sigma-Aldrich, cat. H4001), 9.7 ng/mL human EGF recombinant protein (Invitrogen, cat. PHG0313), 23.4 microg/mL adenine (Sigma-Aldrich, cat. A2786), 97.3 U/mL penicillin-streptomycin (Invitrogen, cat. 15140122), 1.9 mM L-glutamine (Invitrogen, cat. 25030081), and 9.7 microM Y-27632 dihydrochloride (Tocris Bioscience, Bristol, United Kingdom, cat. 1254). The PDCs were cultured in complete DMEM/F12 media without 9.7 microM Y-27632 dihydrochloride for at least two passages prior to the screen. The established cell line HOP-62 was cultured in RPMI 1640 medium, HEPES (Invitrogen, cat. 22400105) with 10% defined fetal bovine serum (HyClone Laboratories Inc., cat. SH30070.03) and 2 mM L-glutamine (Invitrogen, cat. 25030081). The pooled donor HUVEC were cultured in endothelial cell growth medium 2 (PromoCell, Heidelberg, Germany, cat. C-22011) and the hMSC were cultured in mesenchymal stem cell growth medium 2 (PromoCell, cat. C-28009). For all experiments, HUVEC and hMSC were used at passages </=5, while the malignant cell lines were used at passages </=15. […]

Where [1] appears, read: compound alone, run of 08/19/2021.
[2] abbreviates: compound alone, run of 08/26/2021.
Setting [3] is: compound alone, run of 09/02/2021.

In PubChem BioAssay AID1963869 (Molecular Pharmacology Branch, DTP, NCI, 2024) one finds viability, T/C and IC50 data, which are given here for eight molecules.

Where “and” joins values, the source holds several entries; their conditions need not be identical. Identical values can stand only once. Where only a bound is given, the exact number is not on record here.
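Also: spheroids exposed to agents for 7 days.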

Turning to `C=CC(=O)N1CCN(c2nc(=O)n(-c3c(C)ccnc3C(C)C)c3nc(-c4c(O)cccc4F)c(F)cc23)C(C)C1` (centres undefined), the viability, T/C (compound 0.1 µM) was 58.9% [middle of 17 runs]; the viability, T/C (compound 0.316 µM) is 58.4% [middle of 17 runs]; the viability, T/C (compound 1 µM) is 59.1% [middle of 17 runs]; the viability, T/C (compound 3.16 µM) was 60.4% [middle of 17 runs]; the viability, T/C (compound 10 µM) was 52% [middle of 17 runs]. Also, the half-inhibitory concentration (IC50) runs as follows: under setting [1], > 10 µM and 2.73 µM; under setting [2], > 10 µM and 7.82 µM and 9.64 µM; under setting [3], > 10 µM.

Regarding `CC(C)NCC(C(=O)N1CCN(c2ncnc3c2C(C)CC3O)CC1)c1ccc(Cl)cc1` (centres undefined), the viability, T/C was 97.7% [middle of 5 runs] (compound 0.0316 µM); 94% [middle of 5 runs] (compound 0.1 µM); 84.9% [middle of 5 runs] (compound 0.316 µM); 64.6% [middle of 5 runs] (compound 1 µM); 50.4% [middle of 5 runs] (compound 3.16 µM); 41.8% [middle of 5 runs] (compound 10 µM). The IC50 (curve of compound) was 2.93 µM [middle of 5 runs].

Regarding `CNCc1ccccc1-c1csc(C(C)Nc2nc(C)nc3cc(OC)c(OC)cc23)c1` (centres undefined), the viability, T/C runs as follows: (compound 0.316 µM) 89.6% [middle of 16 runs]; (compound 1 µM) 89.2% [middle of 16 runs]. The 50% inhibitory concentration (IC50) reads like this: under setting [2], 5.39 µM [middle of 4 runs]; under setting [3], 4.96 µM [middle of 6 runs].

Regarding `COC(=O)c1ccc2c(C(=Nc3ccc(N(C)C(=O)CN4CCN(C)CC4)cc3)c3ccccc3)c(O)[nH]c2c1`, the viability, T/C reads like this: (compound 0.0316 µM) 97.4% [middle of 5 runs]; (compound 0.1 µM) 102% [middle of 5 runs]; (compound 0.316 µM) 101% [middle of 5 runs]; (compound 1 µM) 98% [middle of 5 runs]; (compound 3.16 µM) 98.7% [middle of 5 runs]. Moreover, the IC50 (curve of compound) was 7.38 µM and > 10 µM and 7.57 µM.

On to `COc1cc(OC)cc(N(CCNC(C)C)c2ccc3ncc(-c4cnn(C)c4)nc3c2)c1`, for which the viability, T/C was 102% [middle of 5 runs] (compound 0.0316 µM); 101% [middle of 5 runs] (compound 0.1 µM); 102% [middle of 5 runs] (compound 0.316 µM); 103% [middle of 5 runs] (compound 1 µM); 105% [middle of 5 runs] (compound 3.16 µM); 87.5% [middle of 5 runs] (compound 10 µM). Further, under “curve of compound”, the IC50 was > 10 µM.

Take `COc1cc2nc(C)nc(NC(C)c3cc(N)cc(C(F)(F)F)c3)c2cc1OC1CCOC1` (centres undefined): the viability, T/C is 75.7% [middle of 17 runs] (compound 0.316 µM) and 77.2% [middle of 17 runs] (compound 3.16 µM). The IC50 was > 10 µM under setting [1], > 10 µM under setting [2] and > 10 µM under setting [3].

Take `COc1cc2nccc(Oc3ccc(NC(=O)C4(C(=O)Nc5ccc(F)cc5)CC4)cc3)c2cc1OC`: the viability, T/C (compound 0.0316 µM) is 100% [middle of 5 runs]; the viability, T/C (compound 0.1 µM) was 104% [middle of 5 runs]; the viability, T/C (compound 0.316 µM) is 96.2% [middle of 5 runs]; the viability, T/C (compound 1 µM) is 104% (2×) and 101% (2×) and 99.7%; the viability, T/C (compound 3.16 µM) was 92.9% [middle of 5 runs]; the viability, T/C (compound 10 µM) is 87.7% [middle of 5 runs]. For the same molecule, the IC50 (curve of compound) is > 10 µM.

Turning to `CC(=O)OC12COC1CC(O)C1(C)C(=O)C(O)C3=C(C)C(OC(=O)C(O)C(NC(=O)OC(C)(C)C)c4ccccc4)CC(O)(C(OC(=O)c4ccccc4)C21)C3(C)C` (centres undefined) + C=CC(=O)N1CCN(c2nc(=O)n(-c3c(C)ccnc3C(C)C)c3nc(-c4c(O)cccc4F)c(F)cc23)C(C)C1, the IC50 is < 0.01 µM (curve of first compound, second compound 0.1 µM); < 0.01 µM (curve of first compound, second compound 0.316 µM); < 0.01 µM (curve of first compound, second compound 1 µM); < 0.01 µM (curve of first compound, second compound 3.16 µM); < 0.01 µM (curve of first compound, second compound 10 µM). Further, the viability, T/C reads like this: (second compound 0.1 µM, first compound 0.01 µM) 22.7%; (second compound 0.1 µM, first compound 0.0316 µM) 21.7%; (second compound 0.1 µM, first compound 0.1 µM) 19.9%; (second compound 0.1 µM, first compound 0.316 µM) 19.2%; (second compound 0.1 µM, first compound 1 µM) 18.9%; (second compound 0.1 µM, first compound 3.16 µM) 22.2%. Further, the viability, T/C is 21.9% (second compound 0.316 µM, first compound 0.01 µM); 21.5% (second compound 0.316 µM, first compound 0.0316 µM); 21.6% (second compound 0.316 µM, first compound 0.1 µM); 19.4% (second compound 0.316 µM, first compound 0.316 µM); 20.9% (second compound 0.316 µM, first compound 1 µM); 21.1% (second compound 0.316 µM, first compound 3.16 µM). The viability, T/C (second compound 1 µM, first compound 0.01 µM) was 21.3%; the viability, T/C (second compound 1 µM, first compound 0.0316 µM) is 19.2%; the viability, T/C (second compound 1 µM, first compound 0.1 µM) is 19.6%; the viability, T/C (second compound 1 µM, first compound 0.316 µM) was 17.4%; the viability, T/C (second compound 1 µM, first compound 1 µM) is 18.7%; the viability, T/C (second compound 1 µM, first compound 3.16 µM) is 19.7%. Further, the viability, T/C reads like this: (second compound 3.16 µM, first compound 0.01 µM) 19.7%; (second compound 3.16 µM, first compound 0.0316 µM) 21.9%; (second compound 3.16 µM, first compound 0.1 µM) 17.6%; (second compound 3.16 µM, first compound 0.316 µM) 19.6%; (second compound 3.16 µM, first compound 1 µM) 18.9%; (second compound 3.16 µM, first compound 3.16 µM) 18.5%. Moreover, the viability, T/C (second compound 10 µM, first compound 0.01 µM) was 21.3%; the viability, T/C (second compound 10 µM, first compound 0.0316 µM) was 19.6%; the viability, T/C (second compound 10 µM, first compound 0.1 µM) is 19.8%; the viability, T/C (second compound 10 µM, first compound 0.316 µM) was 15.6%; the viability, T/C (second compound 10 µM, first compound 1 µM) was 16%; the viability, T/C (second compound 10 µM, first compound 3.16 µM) was 16.7%.

The viability, T/C is the ratio of treated to control. What is called IC50 is the concentration that inhibits the measured activity by half.
